Source: patent US6417190B1, “Tricyclic nitrogen heterocycles as PDE IV inhibitors” (Boehringer Ingelheim Pharma KG, priority 1998, dated 2002)

tested on: human PDE IV; experiment: PDE IV inhibition, method of Torphy et al. (1992), [3H]cAMP, enzyme purified from human monocytes (U937-cells); type: biochemical; conditions: 1 μCi/ml [3H] cAMP, 40 mM Tris-HCl (pH 7.8), 3 mM MgCl2, incubation 30 min at 30° C.
Source text: Table 1 contains the pharmacological data obtained for the compounds of general formula (I). The data was obtained by the method of Torphy et al. (1992), J. Pharmacol. Exp. Ther. 263:1195.

IC50 [µM] | SMILES
0.018 | CCCn1c(=O)c2[nH]c(C3CCCC3)nc2n2nc(C(C)C)nc12 [No. 1]
0.039 | CCCn1c(=O)c2[nH]c(C3CCCC3)nc2n2nc(CC)nc12 [No. 2]
0.042 | CCn1c(=O)c2[nH]c(C(C)(C)C)nc2n2nc(Cc3ccc(OC)cc3)nc12 [No. 3]
0.046 | CCn1c(=O)c2[nH]c(C3CCCC3)nc2n2nc(CCc3ccccc3)nc12 [No. 4]
0.049 | CCCc1nc2n(CCC)c(=O)c3[nH]c(C4CCCC4)nc3n2n1 [No. 6]
0.053 | CCn1c(=O)c2[nH]c(C(C)(C)C)nc2n2nc(Cc3ccccc3)nc12 [No. 7]
0.055 | CCCc1nc2n(CCC)c(=O)c3[nH]c(-c4ccccc4)nc3n2n1 [No. 8]
0.057 | CCn1c(=O)c2[nH]c(C3CCCC3)nc2n2nc(Cc3ccccc3)nc12 [No. 9]
0.069 | CCCc1nc2c([nH]1)c(=O)n(CCC)c1nc(Cc3ccccc3)nn21 [No. 10]
0.069 | CCn1c(=O)c2[nH]c(C3CCCC3)nc2n2nc(Cn3cccc3)nc12 [No. 11]
0.074 | CCCn1c(=O)c2[nH]c(C3CCCC3)nc2n2nc(Cc3ccccc3)nc12 [No. 12]
0.079 | CCCn1c(=O)c2[nH]c(C3CCCC3)nc2n2nc(C(C)(C)C)nc12 [No. 13]
0.081 | CCCCc1nc2n(CCC)c(=O)c3[nH]c(C4CCCC4)nc3n2n1 [No. 14]
0.11 | CCn1c(=O)c2[nH]c(C3CCCC3)nc2n2nc(COc3ccccc3)nc12 [No. 15]
0.11 | CCCn1c(=O)c2[nH]c(N3CCOCC3)nc2n2nc(Cc3ccccc3)nc12 [No. 16]
0.11 | CCn1c(=O)c2[nH]c(C3CCCC3)nc2n2nc(CC3CCCCC3)nc12 [No. 17]
0.12 | CCc1nc2c([nH]1)c(=O)n(CC)c1nc(CC3CCCCC3)nn21 [No. 18]
0.12 | CCCc1nc2c([nH]1)c(=O)n(CCC)c1nc(C3CCCC3)nn21 [No. 19]
